Measured values: US8058306B2, “Phenyl pyrrole aminoguanidine derivatives” (Action Pharma A/S, priority 2006, dated 2011)
“And” between values parts separate entries of the source, which are not always exact repeats. Identical values can stand only once. “Also recorded” adds a separate entry of the source. Like-named read-outs stand apart in the source and are kept apart here.

Experiment: Plasma kinetics in rat following intravenous and oral administration;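 for AUC0-∞: parameter is AUC from zero to infinity in ng·h/mL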
Assay type: in vivo, Sprague Dawley rats
Conditions: for t1/2: Table XIV; for concentration at 0.05 h / concentration at 0.1 h / concentration at 0.25 h / concentration at 0.75 h / concentration at 1.5 h / concentration at 2.5 h / concentration at 4 h / concentration at 6 h / concentration at 8 h / concentration at 24 h: single intravenous 10 mg/kg
Experimental: This study determined the intravenous pharmacokinetics and oral bioavailability of compound 1 of the invention (see FIG. 1A, structure no. 1), compound 2 of the invention (see FIG. 1D, structure no. 19) and compound 3 of the invention (see FIG. 1I, structure no. 53) following administration to Sprague Dawley rats at a dose level of 10 mg/kg.
Six groups of 3 male rats received either a single intravenous or single oral administration of compound 1, 2 or 3 of the invention at a dose level of 10 mg/kg. Blood samples were obtained at various times after dosing. Plasma samples were analysed for unchanged test item using a suitable LC-MS/MS method. Pharmacokinetic parameters were estimated from individual plasma concentrations.
Eighteen male rats each received either a single intravenous or a single oral administration of either compound 1, 2 or 3 at a dose level of 10 mg/kg. The formulation was orally administered to each animal by gastric gavage and intravenously administered to each animal via a tail vein. The dose was administered at a dose volume of 5 mL/kg. The formulations were administered to each animal according to the details in the following table:
Blood samples (ca 0.3 mL) were removed from the femoral vein of each animal into tubes containing lithium heparin as anticoagulant.
Blood samples were collected from 3 rats at the following times after dose administration: • 3, 6, 15, 45 min and 1.5, 2.5, 4, 6, 8, 24 h post dose. Oral Administration
Blood samples were collected from 3 rats at the following times after dose administration: • 5, 15, 45 min and 1.5, 2.5, 4, 6, 8, 24 h post dose. Processing of Blood Samples
Pharmacokinetic parameters of compound 1, 2 and 3 were derived by non-compartmental analysis using WinNonLin Pro version 5.0.1 (Pharsight 2005). The following parameters were derived, where appropriate, from the individual plasma concentration versus time profiles:
• F % The absolute oral bioavailability calculated as [AUC0-t (oral)*Dose(iv)/AUC0-t (iv)*Dose (oral)]*100 based on mean values derived after oral and intravenous administration Consideration was given to the estimation of λz and corresponding t1/2 values. Three or more points are required within the terminal phase for λz and t1/2 to be estimated. The following additional variables were tabulated to aid identification of potentially unreliable estimates of t1/2 and AUC:
Pharmacokinetic parameters were reported as geometric mean except Tmax which was reported as the median. Geometric coefficient of variation was calculated as: […]
Actual sampling times were used for all calculations of pharmacokinetic parameters. Plasma concentrations that were below the limit of quantification were taken as zero for the pharmacokinetic analysis.

[1] = intravenous 10 mg/kg, male rats, individual animals, acetate, 10 mg/kg
[2] = male, Sprague Dawley, rat, plasma, iv, 10 mg/kg, male rats, individual animals, read-out: Sample Concentration in plasma
[3] = male, Sprague Dawley, rat, plasma, iv, 10 mg/kg, male rats, mean of 3, read-out: Mean Concentration in plasma
[4] = male, Sprague Dawley, rat, plasma, iv, 10 mg/kg, male rats, individual animals, LLOQ 2.50, read-out: Sample Concentration in plasma
[5] = male, Sprague Dawley, rat, plasma, iv, 10 mg/kg, male rats, mean, read-out: Mean Concentration in plasma

N=C(N)NN=CC=Cc1cccn1-c1ccccc1Br [Compound 3, [1-(2-bromophenyl)-1H-pyrrol-2-yl-allylideneamino]guanidinium acetate]
bioavailability (Sprague Dawley, rat, plasma, 10 mg/kg oral vs intravenous, male rats, from mean AUC0-t, read-out: Mean absolute oral bioavailability): 20.6%
t1/2 (intravenous 10 mg/kg, male rats, Arithmetic Mean): 3.15 h
t1/2 (intravenous 10 mg/kg, male rats, Geometric mean): 3.14 h
t1/2 (intravenous 10 mg/kg, male rats, Median): 3.26 h
t1/2 [1]: 3.26 h and 3.46 h and 2.74 h
Between-animal variability in systemic exposure, coefficient of variation (CV) of AUC0-t (intravenous 10 mg/kg, male rats): less than 30%
AUC0-∞ [1]: 1911 ng·h/mL and 2504 ng·h/mL
AUC(0-t) [1]: 1896 ng·h/mL and 2258 ng·h/mL
C0 [1]: 9463 ng/mL and 4924 ng/mL
CL [1]: 90.3 mL/min/kg and 68.25 mL/min/kg
MRT [1]: 2.53 h
Vss [1]: 13.694 L/kg and 13.225 L/kg
Systemic clearance (in words) (intravenous 10 mg/kg, rats): high
volume of distribution compared with total body water (in words) (intravenous 10 mg/kg, rats, total body water 668 mL/kg, acetate, 10 mg/kg): exceeded the total body water; also recorded: markedly greater than that of the total body water
systemic plasma clearance (CL) compared with hepatic blood flow (in words) (intravenous 10 mg/kg, hepatic blood flow 3312 mL/h/kg): greater than hepatic blood flow
AUC(0-inf) (male, Sprague Dawley, rat, plasma, iv, 10 mg/kg, intravenous 10 mg/kg, male rats, Arithmetic Mean): 2500 ng·h/mL
AUC(0-t) (male, Sprague Dawley, rat, plasma, iv, 10 mg/kg, intravenous 10 mg/kg, male rats, Arithmetic Mean, read-out: AUC0-t): 2410 ng·h/mL
C0 (male, Sprague Dawley, rat, plasma, iv, 10 mg/kg, intravenous 10 mg/kg, male rats, Arithmetic Mean, read-out: C0): 6630 ng/mL
clearance (male, Sprague Dawley, rat, plasma, iv, 10 mg/kg, intravenous 10 mg/kg, male rats, Arithmetic Mean, read-out: CL (converted)): 71.3 mL/min/kg
MRT (male, Sprague Dawley, rat, plasma, iv, 10 mg/kg, intravenous 10 mg/kg, male rats, Arithmetic Mean, read-out: MRT): 3.24 h
Vd (male, Sprague Dawley, rat, plasma, iv, 10 mg/kg, intravenous 10 mg/kg, male rats, Arithmetic Mean, read-out: Vss): 13.4 L/kg
AUC(0-inf) (male, Sprague Dawley, rat, plasma, iv, 10 mg/kg, intravenous 10 mg/kg, male rats, Geometric mean): 2460 ng·h/mL
AUC(0-t) (male, Sprague Dawley, rat, plasma, iv, 10 mg/kg, intravenous 10 mg/kg, male rats, Geometric mean, read-out: AUC0-t): 2360 ng·h/mL
C0 (male, Sprague Dawley, rat, plasma, iv, 10 mg/kg, intravenous 10 mg/kg, male rats, Geometric mean, read-out: C0): 6360 ng/mL
clearance (male, Sprague Dawley, rat, plasma, iv, 10 mg/kg, intravenous 10 mg/kg, male rats, Geometric mean, read-out: CL (systemic plasma clearance) (converted)): 69.9 mL/min/kg
MRT (male, Sprague Dawley, rat, plasma, iv, 10 mg/kg, intravenous 10 mg/kg, male rats, Geometric mean, read-out: MRT): 3.19 h
Vd (male, Sprague Dawley, rat, plasma, iv, 10 mg/kg, intravenous 10 mg/kg, male rats, Geometric mean, read-out: Vss (mean apparent volume of distribution)): 13.4 L/kg
half-life (male, Sprague Dawley, rat, plasma, iv, 10 mg/kg, intravenous 10 mg/kg, male rats, Geometric mean, read-out: t1/2 (mean apparent terminal half-life) (converted)): 3.14 h
AUC(0-inf) (male, Sprague Dawley, rat, plasma, iv, 10 mg/kg, intravenous 10 mg/kg, male rats, Median): 2500 ng·h/mL
AUC(0-t) (male, Sprague Dawley, rat, plasma, iv, 10 mg/kg, intravenous 10 mg/kg, male rats, Median, read-out: AUC0-t): 2260 ng·h/mL
C0 (male, Sprague Dawley, rat, plasma, iv, 10 mg/kg, intravenous 10 mg/kg, male rats, Median, read-out: C0): 5520 ng/mL
clearance (male, Sprague Dawley, rat, plasma, iv, 10 mg/kg, intravenous 10 mg/kg, male rats, Median, read-out: CL (converted)): 68.2 mL/min/kg
MRT (male, Sprague Dawley, rat, plasma, iv, 10 mg/kg, intravenous 10 mg/kg, male rats, Median, read-out: MRT): 3.23 h
Vd (male, Sprague Dawley, rat, plasma, iv, 10 mg/kg, intravenous 10 mg/kg, male rats, Median, read-out: Vss): 13.2 L/kg
AUC(0-inf) (male, Sprague Dawley, rat, plasma, iv, 10 mg/kg, intravenous 10 mg/kg, male rats, individual animals): 3090 ng·h/mL
AUC(0-t) (male, Sprague Dawley, rat, plasma, iv, 10 mg/kg, intravenous 10 mg/kg, male rats, individual animals, read-out: AUC0-t): 3080 ng·h/mL
C0 (male, Sprague Dawley, rat, plasma, iv, 10 mg/kg, intravenous 10 mg/kg, male rats, individual animals, read-out: C0): 5520 ng/mL
clearance (male, Sprague Dawley, rat, plasma, iv, 10 mg/kg, intravenous 10 mg/kg, male rats, individual animals, read-out: CL (converted)): 55.4 mL/min/kg
MRT (male, Sprague Dawley, rat, plasma, iv, 10 mg/kg, intravenous 10 mg/kg, male rats, individual animals, read-out: MRT): 3.96 h
Vd (male, Sprague Dawley, rat, plasma, iv, 10 mg/kg, intravenous 10 mg/kg, male rats, individual animals, read-out: Vss): 13.2 L/kg
concentration at 0.05 h (male, Sprague Dawley, rat, plasma, iv, 10 mg/kg, male rats, 0.05 h (3 min), mean of 3, read-out: Mean Concentration in plasma): 3170 ng/mL
concentration at 0.05 h (male, Sprague Dawley, rat, plasma, iv, 10 mg/kg, male rats, 0.05 h, individual animals, read-out: Sample Concentration in plasma): 2530 ng/mL
concentration at 0.1 h [2]: 978 ng/mL
concentration at 0.1 h [3]: 1100 ng/mL
concentration at 0.25 h [2]: 481 ng/mL
concentration at 0.25 h [3]: 780 ng/mL
concentration at 0.75 h [2]: 404 ng/mL
concentration at 0.75 h [3]: 465 ng/mL
concentration at 1.5 h [2]: 274 ng/mL
concentration at 1.5 h [3]: 335 ng/mL
concentration at 2.5 h [2]: 240 ng/mL
concentration at 2.5 h [3]: 251 ng/mL
concentration at 4 h [2]: 179 ng/mL
concentration at 4 h [3]: 192 ng/mL
concentration at 6 h [2]: 103 ng/mL
concentration at 6 h [3]: 119 ng/mL
concentration at 8 h [4]: 62.3 ng/mL
concentration at 8 h [5]: 81.2 ng/mL
concentration at 24 h [4]: 3.08 ng/mL
concentration at 24 h [5]: 2.82 ng/mL
AUC(0-inf) (male, Sprague Dawley, rat, plasma, po, 10 mg/kg, oral 10 mg/kg, male rats, Arithmetic Mean): 838 ng·h/mL
AUC(0-t) (male, Sprague Dawley, rat, plasma, po, 10 mg/kg, oral 10 mg/kg, male rats, Arithmetic Mean, read-out: AUC0-t): 518 ng·h/mL
Cmax (male, Sprague Dawley, rat, plasma, po, 10 mg/kg, oral 10 mg/kg, male rats, Arithmetic Mean, read-out: Cmax): 110 ng/mL
MRT (male, Sprague Dawley, rat, plasma, po, 10 mg/kg, oral 10 mg/kg, male rats, Arithmetic Mean, read-out: MRT): 6.83 h
half-life (male, Sprague Dawley, rat, plasma, po, 10 mg/kg, oral 10 mg/kg, male rats, Arithmetic Mean, read-out: t1/2 (converted)): 3.3 h
Tmax (male, Sprague Dawley, rat, plasma, po, 10 mg/kg, oral 10 mg/kg, male rats, Arithmetic Mean, read-out: tmax): 4.67 h
